Source: paper PMC3530479, “Bestrophin-Encoded Ca^2+-Activated Cl^− Channels Underlie a Current with Properties Similar to the Native Current in the Moth Spodoptera littoralis Olfactory Receptor Neurons” (PLoS ONE, 2012)

Biological target: T1, SlitBest1b (Spodoptera littoralis, UniProt I6YK90)
T1 construct: full open reading frame without stop codon in pCINeo/IRES-GFP, expressed transiently in CHO-K1 cells
T1 sequence (I6YK90 1-707): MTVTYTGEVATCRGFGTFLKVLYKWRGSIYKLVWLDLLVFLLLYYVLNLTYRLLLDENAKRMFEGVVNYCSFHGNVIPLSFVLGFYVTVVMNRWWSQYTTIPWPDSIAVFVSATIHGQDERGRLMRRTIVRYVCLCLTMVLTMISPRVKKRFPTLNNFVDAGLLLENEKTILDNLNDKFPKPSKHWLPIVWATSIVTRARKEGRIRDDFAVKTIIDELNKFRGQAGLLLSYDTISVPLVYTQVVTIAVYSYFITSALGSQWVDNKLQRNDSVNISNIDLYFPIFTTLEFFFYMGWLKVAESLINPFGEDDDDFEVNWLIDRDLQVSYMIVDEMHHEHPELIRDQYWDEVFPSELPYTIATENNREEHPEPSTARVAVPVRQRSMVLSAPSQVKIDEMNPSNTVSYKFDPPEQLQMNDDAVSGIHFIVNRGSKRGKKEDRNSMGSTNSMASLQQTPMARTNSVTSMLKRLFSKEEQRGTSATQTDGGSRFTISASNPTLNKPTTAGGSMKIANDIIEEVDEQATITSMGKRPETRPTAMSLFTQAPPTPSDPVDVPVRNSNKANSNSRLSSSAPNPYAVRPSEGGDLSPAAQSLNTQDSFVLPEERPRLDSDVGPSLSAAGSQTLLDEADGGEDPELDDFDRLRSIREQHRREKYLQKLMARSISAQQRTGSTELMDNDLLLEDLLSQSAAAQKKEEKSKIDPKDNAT
Assay: whole-cell patch clamp, steady-state Ca2+-activated Cl- current in transfected CHO-K1 cells
Assay type: cell-based
Description: whole-cell patch clamp, steady-state Ca2+-activated Cl- current in transfected CHO-K1 cells on SlitBest1b

inhibition at 100 µM [%]	inhibition at 300 µM [%]	SMILES
78.7 ± 8.2	–	O=C(O)c1ccccc1Nc1cccc(C(F)(F)F)c1 [flufenamic acid]
–	65.1 ± 8.9	O=C(O)c1cccnc1Nc1cccc(C(F)(F)F)c1 [niflumic acid]
101 ± 7.6	–	O=C(O)c1cc([N+](=O)[O-])ccc1NCCCc1ccccc1 [NPPB, 5-nitro-2-(3-phenylpropylamino) benzoic acid]
